We go through four molecules from patent US7008531B2, “Treatment of circulating water systems” (Arch Chemicals Inc., priority 2000, dated 2006).

Each structure is given as a SMILES string.

Data set [1] relates to field isolated mustard algae. Description: Remedial laboratory study on algae (flask test, optical density after 5 days). Type of data set: cell-based. The settings on record: for Difference in performance between octadecylamine and dimethyloctadecylamine: 2.5 ppm with PHMB 4.0 ppm, summary of Table 2; for Comments (algae control) / Average Optical Density: Table 2, 5 days; for Average Optical Density: initial absorbance 0.10, <0.2 = algistatic or algicidal. Here is the method: Remedial efficacy was evaluated in this example using field isolated mustard algae.
Studies were conducted in 125 ml flasks containing 6 mm borosilicate glass beads (50) and Jaworski's medium (50 ml). The flasks were inoculated with pooled cultures of mustard algae to achieve an initial absorbance of 0.10, as measured using a Milton Roy Spec 20 Spectrophotometer. […] The adjuvants identified in Table 2 were added at levels of 1.25 and 2.5 ppm active ingredient. Busan 20/20™ identified in Table 3 was added at levels of 0.625, 1.25, 2.5 and 5.0 ppm. The performance of the adjuvants were compared to the controls with and without PHMB. The flasks were closed using translucent caps, illuminated for 8 hours using a combination of fluorescent grow lamps and standard incandescent lamps each day and incubated at 80° F. for a period of 5 days. Algal growth was measured after 5 days using a Milton Roy Spec 20 spectrophotometer. The higher the optical density the heavier the growth.

Data set [2] can be described thus: Effect of adjuvant on water clarity (simulated swimming pool water, Hach Turbidimeter and visual inspection). Type of data set: physicochemical. Conditions: for Turbidity / Visual Observations: simulated pool water with PHMB 6-12 ppm, pH 7.2-7.8, circulated 24 hours; for Turbidity: 70±3° F.; for Effect on water clarity: summary of Table 4, simulated pool water with PHMB. Here is the method: Six 10 gallon fish aquariums equipped with a heater and a recirculating pump (to simulate a swimming pool environment) were filled with simulated swimming pool water containing polyhexamethylene biguanide (PHMB) comprising:
The pH of the tanks was maintained between 7.2 and 7.8 and the water temperature was maintained at 70±3° F. After the chemical additions the water was circulated for 24 hours. The water in each tank was then visually inspected and tested for turbidity using a Hach Turbidimeter.

Data set [3] has as its system field isolated mustard algae. Description: Preventative laboratory study on algae (flask test, visual growth score). Type of data set: cell-based. Conditions: for Average Visual Score: 10 days, 0-4 scale, any score >1 is a preventative failure. As to the method:
In preventative laboratory treatment studies, growth conditions are optimised to support a bloom. An experimental flask is prepared with a medium having optimised growth conditions to support a bloom, the medium in the flask is treated with a prescribed concentration of a test formulation, and then inoculated with a low concentration of a bloom-forming organism. The medium is monitored for a period of time to observe whether the formulation is effective at preventing an algal bloom.
These studies used the most problematic organisms, i.e. field isolated mustard algae.
The Jawaorski's medium was modified by the addition of 4 ppm polyhexamethylene biguanide (PHMB) (ex Avecia Inc.) to inhibit the growth of the bacteria present in the algal isolates. The inocula were harvested by aseptic vacuum filtration and the concentration of algal cell masses were combined (“pooled”) and redispersed in a aseptic medium to provide a concentrated pooled inoculum. The amount of inoculum used was varied to achieve an initial optical density of 0.010 in the test flasks. The optical density was determined using a Milton Roy Spec 20 spectrophotometer.
[…] Each flask was then inoculated with a prescribed amount of the pooled inoculum, so that the liquid in the flask had no visible green cast.

Setting [4] is: adjuvant 1.25 ppm + PHMB 4.0 ppm.
[5] abbreviates: adjuvant 2.5 ppm + PHMB 4.0 ppm.

Take `CCCCCCCCCCCCCCCCCCN(C)C` [Dimethyloctadecylamine, dimethyloctadecylamine]: the “Difference in performance between octadecylamine and dimethyloctadecylamine” value in data set [1] is “no significant difference”. Besides, in data set [1] (setting [4]), the “Comments (algae control)” value is “Control” and the “Average Optical Density” value amounted to 0.12. For the same molecule, the “Average Optical Density” value in data set [1] (setting [5]) is given as 0.07.
Consider `CCCCCCCCCCCCN` [Dodecylamine, dodecylamine], for which the Turbidity in data set [2] (adjuvant 2.5 ppm) was 2.7 NTU; in data set [2] (adjuvant 5.0 ppm) it was 1.8 NTU; in data set [2] (adjuvant 10.0 ppm), 2.5 NTU. The “Visual Observations” value in data set [2] (adjuvant 2.5 ppm), in data set [2] (adjuvant 5.0 ppm) and in data set [2] (adjuvant 10.0 ppm) was “Clear” in each case. For the same molecule, in data set [2], the “Effect on water clarity” value is listed as “no effect on water clarity”. In addition, the figures for the “Average Optical Density” value in data set [1] (setting [4]) and in data set [1] (setting [5]) were 0.08 and 0.12, respectively. Further, the “Comments (algae control)” value in data set [1] (setting [5]) is listed as “Control”. In addition, the “Average Visual Score” value in data set [3] (setting [5]), in data set [3] (adjuvant 5.0 ppm + PHMB 4.0 ppm), in data set [3] (adjuvant 10.0 ppm + PHMB 4.0 ppm) and in data set [3] (adjuvant 15.0 ppm + PHMB 4.0 ppm) was 0 each time. Besides, in data set [3] (in combination with PHMB, summary of Table 1), the “Preventing the field isolated mustard algae outbreak, compared with PHMB alone” value is reported as “effectiveness”.
Regarding `CCCCCCCCCCCCCCCCCCN` [Octadecylamine, octadecylamine], the “Difference in performance between octadecylamine and dimethyloctadecylamine” value in data set [1] is “no significant difference”. Also, in data set [1] (setting [4]), the “Comments (algae control)” value is reported as “Control”. Also, the “Average Optical Density” value in data set [1] (setting [4]) worked out at 0.16; in data set [1] (setting [5]), 0.08.
In the case of `CCCCCCCCCCCCCCN` [Tetradecylamine, reference compound], in data set [2] (adjuvant 5.0 ppm), the Turbidity is reported as 10.1 NTU and the “Visual Observations” value is “Cloudy”. Further, in data set [2] (adjuvant 10.0 ppm), the Turbidity is 19.0 NTU and the “Visual Observations” value was “Cloudy”. In data set [2], the “Effect on water clarity” value is given as “resulted in water turbidity”.
